In patent US20220324835A1 (Nurix Therapeutics, Inc., priority 2018, published 2022):
Like-named read-outs stand apart in the source and are kept apart here.

Assays:
Cbl-b (residues 36-427) = Cbl-b (residues 36-427) (Homo sapiens, UniProt Q13191); assay: Cbl-b binding assay (SPR, Biacore T200); conditions: 20° C., 1:1 binding model
How it was run: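 Affinities derived from global 1:1 steady-state or kinetic fits of double-referenced, solvent-corrected SPR data, 20 °C, NeutrAvidin-capture chip. Compound series (top 100 or 50 μM, 8–10 points) injected 50 s, 90–180 s dissociation. Asterisked values used 50 mM instead of 100 mM NaCl and 30 nM Src kinase.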

primary human NK cells = assay: NK cell activation assessed by cytokine secretion (coculture with K562 NucRed target cells); assay type: cell-based; conditions: for fold induction at 0.625 µM: 0.625 μM compound; for fold induction at 2.5 µM: 2.5 μM compound
Experimental: Peripheral blood mononuclear cells (PBMC) were obtained either: 1) by using Ficoll-Paque™ (GE Healthcare) for separation of peripheral blood hematopoietic cells from buffy coats of healthy human donors; or 2) directly from LeukoPak donations. […] The cells were cultured overnight with IL-2 (60 ng/mL) at 37° C. 5% CO2. Cbl-b inhibitors were added 1 hour prior to stimulation and incubated at 37° C. 5% CO2 at a specific concentration (e.g., 10 μM, 1 μM, or 0.1 μM) with a final DMSO concentration of <0.1%. NK cells were co-cultured with target cells that were engineered to have a red nucleus (K562 NucRed) measurable by flow cytometry. […] The cells were mixed at the indicated ratios (e.g., 5:1, 1:1, or 1:5) of NK (effector cells) to K562 NucRed (target cells) for 6 hours. Cell free supernatants were collected and analyzed for cytokine secretion (e.g. TNFα, IFNγ, or MIP1β) by ELISA or Luminex multiplex kits following the manufacturer's protocol. IFNγ secretion was assessed using an R&D Systems ELISA kit (Catalog #DY285), TNFα secretion was assessed using an R&D Systems ELISA kit (Catalog #DY210), and MIP1β secretion was assessed using an R&D Systems ELISA kit (Catalog #DY271).
Readouts were reported as fold change over baseline. Baseline for this study was the measurement obtained from primary human NK effector cells cocultured with K562 NucRed target cells in the absence of a Cbl-b inhibitor. For NK cells cocultured with K562 NucRed cells, changes greater than 2.0-fold over baseline for cytokine secretion were considered a positive response (Table 10a and 10b).

[1] = K562, NK cells cocultured with K562 NucRed, 1:1 E/T, read-out: IFNγ secretion, fold change over baseline
[2] = K562, NK cells cocultured with K562 NucRed, 1:1 E/T, read-out: TNFα secretion, fold change over baseline
[3] = K562, NK cells cocultured with K562 NucRed, 1:1 E/T, 10 μM compound, read-out: IFNγ secretion, fold change over baseline
[4] = K562, NK cells cocultured with K562 NucRed, 1:1 E/T, 10 μM compound, read-out: TNFα secretion, fold change over baseline
[5] = K562, 1:1 E/T, read-out: IFNγ secretion
[6] = K562, 1:1 E/T, read-out: MIP1β secretion
[7] = K562, 1:1 E/T, read-out: TNFα secretion
[8] = K562, 1:1 E/T, 10 μM, read-out: IFNγ secretion
[9] = K562, 1:1 E/T, 10 μM, read-out: MIP1β secretion
[10] = K562, 1:1 E/T, 10 μM, read-out: TNFα secretion
[11] = K562, 5:1 E/T, read-out: IFNγ secretion
[12] = K562, 5:1 E/T, read-out: MIP1β secretion
[13] = K562, 5:1 E/T, read-out: TNFα secretion
[14] = K562, 5:1 E/T, 10 μM, read-out: IFNγ secretion
[15] = K562, 5:1 E/T, 10 μM, read-out: MIP1β secretion
[16] = K562, 5:1 E/T, 10 μM, read-out: TNFα secretion

Sequence of Cbl-b (residues 36-427) (Q13191 36-427): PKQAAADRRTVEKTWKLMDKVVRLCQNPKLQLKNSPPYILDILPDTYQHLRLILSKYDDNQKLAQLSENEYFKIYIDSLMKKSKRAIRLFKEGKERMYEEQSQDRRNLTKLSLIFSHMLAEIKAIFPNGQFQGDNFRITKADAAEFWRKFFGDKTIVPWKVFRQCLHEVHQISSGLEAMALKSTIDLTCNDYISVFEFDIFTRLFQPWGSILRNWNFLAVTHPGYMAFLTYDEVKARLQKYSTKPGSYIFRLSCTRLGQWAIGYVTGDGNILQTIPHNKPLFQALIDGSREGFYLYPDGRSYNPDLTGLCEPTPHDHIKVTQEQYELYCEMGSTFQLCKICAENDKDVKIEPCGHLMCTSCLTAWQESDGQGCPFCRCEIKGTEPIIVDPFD

Row | Compound | Kd (Cbl-b (residues 36-427)) | fold induction at 0.625 µM (primary human NK cells; [1]) | fold induction at 0.625 µM (primary human NK cells; [2]) | fold induction at 2.5 µM (primary human NK cells; [1]) | fold induction at 2.5 µM (primary human NK cells; [2]) | fold induction at 10 µM (primary human NK cells; [3]) | fold induction at 10 µM (primary human NK cells; [4]) | fold induction at 1 µM (primary human NK cells; [5]) | fold induction at 1 µM (primary human NK cells; [6]) | fold induction at 1 µM (primary human NK cells; [7]) | fold induction at 10 µM (primary human NK cells; [8]) | fold induction at 10 µM (primary human NK cells; [9]) | fold induction at 10 µM (primary human NK cells; [10]) | fold induction at 1 µM (primary human NK cells; [11]) | fold induction at 1 µM (primary human NK cells; [12]) | fold induction at 1 µM (primary human NK cells; [13]) | fold induction at 10 µM (primary human NK cells; [14]) | fold induction at 10 µM (primary human NK cells; [15]) | fold induction at 10 µM (primary human NK cells; [16])
1 | Cc1n[nH]c(C)c1-c1cc2c(c(C(F)(F)F)c1)CN(c1cccc(C3(Cc4nncn4C)COC3)c1)C2=O [Compound 385, 6-(3,5-dimethyl-1H-pyrazol-4-yl)-2-(3-{3-[(4-methyl-4H-1,2,4-triazol-3-yl)methyl]oxetan-3-yl}phenyl)-4-(trifluoromethyl)-2,3-dihydro-1H-isoindol-1-one] | < 0.1 µM | 1.01 to 2 | < 1 | 2.01 to 5 | 1.01 to 2 | 2.01 to 5 | 1.01 to 2 |  |  |  |  |  |  |  |  |  |  |  | 
2 | C[C@H](Cc1nncn1C)c1cccc(N2Cc3c(cc(CN4CC(O)C4)cc3C(F)(F)F)C2=O)c1 [Compound 393, (R)-6-((3-hydroxyazetidin-1-yl)methyl)-2-(3-(1-(4-methyl-4H-1,2,4-triazol-3-yl)propan-2-yl)phenyl)-4-(trifluoromethyl)isoindolin-1-one] | < 0.1 µM | 1.01 to 2 | 1.01 to 2 | 2.01 to 5 | 2.01 to 5 | 2.01 to 5 | 2.01 to 5 |  |  |  |  |  |  |  |  |  |  |  | 
3 | C[C@H](Cc1nncn1C)c1cccc(N2Cc3c(cc(CN4CC(C)(O)C4)cc3C(F)(F)F)C2=O)c1 [Compound 397] | < 0.1 µM | 2.01 to 5 | 1.01 to 2 | 2.01 to 5 | 2.01 to 5 | > 5 | 2.01 to 5 |  |  |  |  |  |  |  |  |  |  |  | 
4 | C[C@H](Cc1nncn1C)c1cccc(N2Cc3c(cc(CN4CC[C@](C)(O)C4)cc3C(F)(F)F)C2=O)c1 [Compound 398, 6-(((S)-3-hydroxy-3-methylpyrrolidin-1-yl)methyl)-2-(3-((R)-1-(4-methyl-4H-1,2,4-triazol-3-yl)propan-2-yl)phenyl)-4-(trifluoromethyl)isoindolin-1-one] | < 0.1 µM | 2.01 to 5 | 1.01 to 2 | 2.01 to 5 | 2.01 to 5 | > 5 | 2.01 to 5 |  |  |  |  |  |  |  |  |  |  |  | 
5 | C[C@H](Cc1nncn1C)c1cccc(N2Cc3c(cc(CN4CC[C@H](F)C4)cc3C(F)(F)F)C2=O)c1 [Compound 399, 6-(((S)-3-fluoropyrrolidin-1-yl)methyl)-2-(3-((R)-1-(4-methyl-4H-1,2,4-triazol-3-yl)propan-2-yl)phenyl)-4-(trifluoromethyl)isoindolin-1-one] | < 0.1 µM | 2.01 to 5 | 2.01 to 5 | > 5 | > 5 | > 5 | > 5 | 2.01 to 5 | 1.01 to 2 | 2.01 to 5 | > 5 | 1.01 to 2 | 2.01 to 5 | 2.01 to 5 | 1.01 to 2 | 2.01 to 5 | > 5 | 1.01 to 2 | > 5
6 | Cn1cnnc1C(F)(F)[C@](C)(F)c1cccc(N2Cc3c(cc(C(=O)N4CC[C@H](O)C4)cc3C(F)(F)F)C2=O)c1 [Compound 438, 6-((S)-3-hydroxypyrrolidine-1-carbonyl)-2-(3-((R)-1,1,2-trifluoro-1-(4-methyl-4H-1,2,4-triazol-3-yl)propan-2-yl)phenyl)-4-(trifluoromethyl)isoindolin-1-one] | 0.1 to 0.3 µM | 1.01 to 2 | 1.01 to 2 | 1.01 to 2 | 1.01 to 2 | 2.01 to 5 | 1.01 to 2 | < 1 | < 1 | 1.01 to 2 | < 1 | < 1 | 1.01 to 2 | < 1 | < 1 | 1.01 to 2 | 1.01 to 2 | 1.01 to 2 | 1.01 to 2
7 | Cn1cnnc1C(F)(F)[C@](C)(F)c1cccc(N2Cc3c(cc(CN4CC[C@H](F)C4)cc3C(F)(F)F)C2=O)c1 [Compound 447, 6-(((S)-3-fluoropyrrolidin-1-yl)methyl)-2-(3-((R)-1,1,2-trifluoro-1-(4-methyl-4H-1,2,4-triazol-3-yl)propan-2-yl)phenyl)-4-(trifluoromethyl)isoindolin-1-one] | < 0.1 µM |  |  |  |  |  |  | 2.01 to 5 | < 1 | 2.01 to 5 | > 5 | 1.01 to 2 | 2.01 to 5 | > 5 | 1.01 to 2 | 2.01 to 5 | > 5 | 2.01 to 5 | > 5
8 | Cn1cnnc1C(F)(F)[C@](C)(F)c1cccc(N2Cc3c(cc(CN4CCC(F)(F)C4)cc3C(F)(F)F)C2=O)c1 [Compound 448, (R)-6-((3,3-difluoropyrrolidin-1-yl)methyl)-2-(3-(1,1,2-trifluoro-1-(4-methyl-4H-1,2,4-triazol-3-yl)propan-2-yl)phenyl)-4-(trifluoromethyl)isoindolin-1-one] | < 0.1 µM |  |  |  |  |  |  | 1.01 to 2 | 1.01 to 2 | 1.01 to 2 | > 5 | 2.01 to 5 | 2.01 to 5 | 1.01 to 2 | 1.01 to 2 | 1.01 to 2 | > 5 | 2.01 to 5 | 2.01 to 5
9 | Cn1cnnc1C(F)(F)[C@](C)(F)c1cccc(N2Cc3c(cc(CN4CC[C@@H](F)C4)cc3C(F)(F)F)C2=O)c1 [Compound 450] | < 0.1 µM | 2.01 to 5 | 1.01 to 2 | > 5 | 2.01 to 5 | > 5 | 2.01 to 5 |  |  |  |  |  |  |  |  |  |  |  | 
10 | COC1CN(Cc2cc3c(c(C(F)(F)F)c2)CN(c2cccc([C@@](C)(F)C(F)(F)c4nncn4C)c2)C3=O)C1 [Compound 452, (R)-6-((3-methoxyazetidin-1-yl)methyl)-2-(3-(1,1,2-trifluoro-1-(4-methyl-4H-1,2,4-triazol-3-yl)propan-2-yl)phenyl)-4-(trifluoromethyl)isoindolin-1-one] | < 0.1 µM | > 5 | 1.01 to 2 | > 5 | 2.01 to 5 | > 5 | 2.01 to 5 |  |  |  |  |  |  |  |  |  |  |  | 
11 | Cn1cnnc1CC1(c2cccc(NC(=O)c3cc(CN4CCC5(CC5)C4)cc(C4CC4)n3)c2)COC1 [Compound 519, 4-((5-azaspiro[2.4]heptan-5-yl)methyl)-6-cyclopropyl-N-(3-(3-((4-methyl-4H-1,2,4-triazol-3-yl)methyl)oxetan-3-yl)phenyl)picolinamide] |  | > 5 | > 5 | > 5 | 1.01 to 2 | > 5 | 2.01 to 5 |  |  |  |  |  |  |  |  |  |  |  | 
12 | Cn1cnnc1CC1(c2cccc(N3Cc4c(cc(CN5CCC6(CC6)C5)cc4C(F)(F)F)C3=O)c2)COC1 [Compound 520, 6-((5-azaspiro[2.4]heptan-5-yl)methyl)-2-(3-(3-((4-methyl-4H-1,2,4-triazol-3-yl)methyl)oxetan-3-yl)phenyl)-4-(trifluoromethyl)isoindolin-1-one] |  | > 5 | 2.01 to 5 | > 5 | > 5 | > 5 | 2.01 to 5 |  |  |  |  |  |  |  |  |  |  |  | 
